Reference: patent publication US6790865B2, “2-methylpropionic acid derivatives and pharmaceutical compositions comprising the same” (Kissei Pharmaceutical Co., Ltd., priority 1998, dated 2004)
Structures can show the parent of a compound that is named as a salt.

Tests used:
β1-adrenoceptor = molecular target: T1, β1-adrenoceptor (Rattus norvegicus, UniProt P18090); experiment: β1-adrenoceptor stimulating effects, isolated rat atria heart rate increase (Magnus method); type: cell-based; details: isolated male SD rat atria; 100% = heart rate increase after 10^−8M isoproterenol; read-out: EC50 (concentration producing 50% increase of heart rate)
T1 construct: Atria of male SD rats (250 to 400 g in body weight) were isolated; from tissue; host or cells: isolated atria of male SD rats
Protocol: Namely, atria of rats were isolated and preparations were made. The experiment was conducted according to the Magnus method. The increment of heart rate after the addition of isoproterenol (10^−8M) was expressed as 100%. The drug was added cumulatively. The β1-adrenoceptor stimulating effects were evaluated as the concentration of the drug required to produce 50% increase of heart rate (i.e., EC50 value).
The Experiment for Measuring β1-Adrenoceptor Stimulating Effects
Atria of male SD rats (250 to 400 g in body weight) were isolated and the experiment was conducted according to the Magnus method. The preparations with a tension of 0.5 g were exposed to Krebs-Henseleit solution maintained at 37° C. and gassed with a mixture of 95% oxygen and 5% carbon dioxide. The cardiac contractility was isometrically measured with a force-displacement transducer, and heart rate was recorded on a rectigram via a tachometer. The drug was added cumulatively. The drug efficacy was evaluated as the concentration of the drug required to produce 50% increase of heart rate per minute (i.e., EC50 value). In this experiment, increase of heart rate per minute after addition of 10^−8M of isoproterenol was expressed as 100%.

β2-adrenoceptor = molecular target: T2, β2-adrenoceptor (Rattus norvegicus, UniProt P10608); experiment: β2-adrenoceptor stimulating effects, isolated pregnant rat uterus contraction inhibition (Magnus method); type: cell-based; details: isolated uteri of pregnant SD rats (pregnancy day 21); spontaneous contractions summed over 5 minutes; read-out: EC50 (concentration producing 50% inhibition of uterine contraction)
T2 construct: Uteri of pregnant SD rats (pregnancy day 21) were isolated; from tissue; host or cells: longitudinal uterine strips of pregnant SD rats (day 21)
Protocol: Also, uteri of pregnant rats were isolated and preparations were made. The experiment was conducted according to the Magnus method. The sum of uterine contractions during 5 minutes before the addition of the drug was expressed as 100%. The drug was added cumulatively. The β2-adrenoceptor stimulating effects were evaluated as the concentration of the drug required when the sum of the contractions during 5 minutes after the addition of the drug produces 50% decrease of the sum of the contractions during 5 minutes before the addition of the drug (i.e., EC50 value).
The Experiment for Measuring β2-Adrenoceptor Stimulating Effects
Uteri of pregnant SD rats (pregnancy day 21) were isolated and longitudinal strips of approximately 15 mm in length and approximately 5 mm in width free from the basal plate were prepared. The experiment was conducted according to the Magnus method. The preparations with a tension of 0.5 g were exposed to Locke-Ringer solution maintained at 37° C. and gassed with a mixture of 95% oxygen and 5% carbon dioxide. Spontaneous contractions of myometrium were isometrically measured with a force-displacement transducer and recorded on a rectigram. The drug was cumulatively added to the Magnus bath every 5 minutes. The drug efficacy was evaluated as the concentration of the drug required to produce 50% of the inhibition of uterine contraction (i.e., EC50 value) by comparing the sum of uterine contraction during 5 minutes after the addition of the drug with the sum of uterine contractions during 5 minutes before the addition of the drug which was expressed as 100%.

β3-adrenoceptor = β3-adrenoceptor (Mustela putorius furo, UniProt M3YEU4); experiment: β3-adrenoceptor stimulating effects, isolated ferret urinary bladder smooth muscle relaxation (Magnus method); type: cell-based; details: isolated male ferret urinary bladder smooth muscle strips; 0% = maximal relaxation after 10^−5M forskolin; read-out: EC50 (concentration producing 50% decrease of urinary bladder tension)
Protocol: Namely, urinary bladders of ferrets were isolated and preparations were made. The experiment was conducted according to the Magnus method. The […] tension without the addition of the drug is expressed as 100%, and the tension of maximal relaxation after the addition of 10^−5M of forscolin was expressed as 0%. The drug was added cumulatively. The β3-adrenoceptor stimulating effects were evaluated as the concentration of the drug required to produce 50% decrease of the tension (i.e., EC50 value) (The Japanese Journal of Urology, Vol.89, No.2, p.272 (1998)).
The Experiment for Measuring β3-Adrenoceptor Stimulating Effects
Urinary bladders of male ferrets (1100 to 1400 g in body weight) were isolated and urinary bladder smooth muscle strips of approximately 10 mm in length and approximately 2 mm in width were prepared. The experiment was conducted according to the Magnus method. The preparations with a tension of 1 g were exposed to Krebs-Henseleit solution maintained at 37° C. and gassed with a mixture of 95% oxygen and 5% carbon dioxide. Basal tensions of urinary bladder were isometrically measured with a force-displacement transducer and recorded on a rectigram. […] In this experiment, tension of urinary bladder smooth muscle before the addition of the drug was expressed as 100% and tension of maximal relaxation after the addition of 10^−5M concentration of forskolin was expressed as 0%.

male ICR rats = experiment: Acute toxicity test; type: in vivo
Source text: Furthermore, the compounds represented by the above general formula (I) of the present invention are very safe compounds.

T1 sequence (P18090 whole entry): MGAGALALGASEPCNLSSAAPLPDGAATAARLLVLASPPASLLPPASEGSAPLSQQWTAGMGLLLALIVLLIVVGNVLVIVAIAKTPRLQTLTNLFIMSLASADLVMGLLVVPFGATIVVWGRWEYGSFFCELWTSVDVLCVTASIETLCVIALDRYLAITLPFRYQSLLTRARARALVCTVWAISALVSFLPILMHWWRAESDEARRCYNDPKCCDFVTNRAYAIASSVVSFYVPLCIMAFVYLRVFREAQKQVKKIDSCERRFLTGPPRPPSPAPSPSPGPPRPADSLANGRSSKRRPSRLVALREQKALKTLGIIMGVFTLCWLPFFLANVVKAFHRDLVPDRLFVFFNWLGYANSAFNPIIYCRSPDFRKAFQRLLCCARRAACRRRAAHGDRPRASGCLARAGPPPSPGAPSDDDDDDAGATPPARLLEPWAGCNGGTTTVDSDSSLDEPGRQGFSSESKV
T2 sequence (P10608 whole entry): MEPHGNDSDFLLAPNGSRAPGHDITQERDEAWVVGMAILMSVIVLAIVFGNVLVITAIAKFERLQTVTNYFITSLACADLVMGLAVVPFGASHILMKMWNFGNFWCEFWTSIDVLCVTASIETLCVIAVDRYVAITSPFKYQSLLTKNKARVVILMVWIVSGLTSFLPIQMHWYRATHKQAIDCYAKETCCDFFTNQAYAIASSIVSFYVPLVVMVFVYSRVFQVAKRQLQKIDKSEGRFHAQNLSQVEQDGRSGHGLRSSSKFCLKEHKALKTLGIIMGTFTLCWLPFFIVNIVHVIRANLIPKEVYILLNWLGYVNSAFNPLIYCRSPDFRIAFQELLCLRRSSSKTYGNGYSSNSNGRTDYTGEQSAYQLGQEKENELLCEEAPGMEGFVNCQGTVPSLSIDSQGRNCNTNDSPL
β3-adrenoceptor, sequence (M3YEU4 entry or part of it): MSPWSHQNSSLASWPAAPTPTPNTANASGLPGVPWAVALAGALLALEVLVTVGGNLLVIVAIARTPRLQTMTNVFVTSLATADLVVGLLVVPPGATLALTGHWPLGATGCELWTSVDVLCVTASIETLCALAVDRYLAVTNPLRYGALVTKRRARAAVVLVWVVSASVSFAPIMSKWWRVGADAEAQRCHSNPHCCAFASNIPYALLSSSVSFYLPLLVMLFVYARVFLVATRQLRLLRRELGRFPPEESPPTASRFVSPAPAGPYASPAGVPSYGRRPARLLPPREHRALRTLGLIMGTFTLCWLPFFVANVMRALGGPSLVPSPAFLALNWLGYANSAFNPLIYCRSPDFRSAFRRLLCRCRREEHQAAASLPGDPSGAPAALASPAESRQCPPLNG

EC50 (β2-adrenoceptor) | Compound | EC50 (β1-adrenoceptor) | EC50 (β3-adrenoceptor) | death of animals in acute toxicity test (male ICR rats; male ICR rats of 4 weeks age, intravenous, 400 mg/kg, during 24 hours after administration, 400 mg/kg) | death of animals in acute toxicity test (male ICR rats; male ICR rats of 4 weeks age, intravenous, 400 mg/kg, during 24 hours after administration; 400 mg/kg))
11 µM | C[C@H](NCCc1ccc(NC(C)(C)C(=O)O)cc1)[C@H](O)c1ccc(O)cc1 [Compound 13, 2-[[4-[2-[[(1S,2R)-2-Hydroxy-2-(4-hydroxyphenyl)-1-methyl-ethyl]amino]ethyl]phenyl]amino]-2-methylpropionic acid] | 39 µM | – | – | –
38 µM | C[C@H](NCCc1ccc(OC(C)(C)C(=O)O)c(Cl)c1)[C@H](O)c1ccc(O)cc1 [Compound 11, 2-[2-Chloro-4-[2-[[(1S,2R)-2-hydroxy-2-(4-hydroxyphenyl)-1-methylethyl]amino]ethyl]phenoxy]-2-methylpropionic acid] | > 100 µM | – | – | –
0.045 µM | CCOC(=O)C(C)(C)Oc1ccc(CCN[C@@H](C)[C@H](O)c2ccc(O)cc2)c(Cl)c1 [Compound 7, Ethyl 2-[3-chloro-4-[2-[[(1S,2R)-2-hydroxy-2-(4-hydroxy-phenyl)-1-methylethyl]amino]ethyl]phenoxy]-2-methyl-propionate hydrochloride] | 0.3 µM | – | – | –
1.4 µM | C[C@H](NCCc1ccc(NC(C)(C)C(=O)O)cc1Cl)[C@H](O)c1ccc(O)cc1 [Compound 14, 2-[[3-Chloro-4-[2-[[(1S,2R)-2-hydroxy-2-(4-hydroxyphenyl)-1-methylethyl]amino]ethyl]phenyl]amino]-2-methylpropionic acid] | 2.2 µM | – | – | –

The next lines start with the compound.

Compound | EC50 (β2-adrenoceptor) | EC50 (β1-adrenoceptor) | EC50 (β3-adrenoceptor) | death of animals in acute toxicity test (male ICR rats; male ICR rats of 4 weeks age, intravenous, 400 mg/kg, during 24 hours after administration, 400 mg/kg) | death of animals in acute toxicity test (male ICR rats; male ICR rats of 4 weeks age, intravenous, 400 mg/kg, during 24 hours after administration; 400 mg/kg))
C[C@H](NCCc1ccc(OC(C)(C)C(=O)O)cc1)[C@H](O)c1ccc(O)cc1 [Compound 10, 2-[4-[2-[[(1S,2R)-2-Hydroxy-2-(4-hydroxyphenyl)-1-methyl-ethyl]amino]ethyl]phenoxy]-2-methylpropionic acid] | 3.9 µM | – | – | – | –
C[C@H](Cc1ccc(OCC(=O)O)cc1)NC[C@H](O)c1cccc(Cl)c1 [BRL-37344, reference compound] | 0.009 µM | 0.27 µM | 0.0016 µM | – | –
Cc1cc(CCN[C@@H](C)[C@H](O)c2ccc(O)cc2)ccc1OC(C)(C)C(=O)O [Compound 12] | > 100 µM | > 100 µM | – | – | –
C[C@H](NCCc1ccc(OC(C)(C)C(=O)O)cc1Cl)[C@H](O)c1ccc(O)cc1 [Compound 9, 2-[3-Chloro-4-[2-[[(1S,2R)-2-hydroxy-2-(4--hydroxyphenyl)-1-methylethyl]amino]ethyl]phenoxy]-2-methylpropionic acid] | 3.1 µM | 35 µM | – | no death was observed | No death of animals was observed
